This is an account of results in PMC10482914, “Molecular architecture and electron transfer pathway of the Stn family transhydrogenase” (Nature Communications, 2023).

Test [1] concerns the target T1, StnABC complex (FAD / NADP(H) site in StnC) (Sporomusa ovata, UniProt A0A0U1KYI6).
T1 construct: gene SpAn4DRAFT_2937; native purification from S. ovata cytoplasm, untagged; tetramer of StnABC heterotrimers (D2); StnC 1172 amino acids; mildly BS3-crosslinked for cryo-EM; with Electron-bifurcating transhydrogenase subunit StnB (HydB / NuoF-like subunit); Electron-bifurcating transhydrogenase subunit StnA (HydC / NuoE-like, thioredoxin-like [2Fe-2S] subunit)
T1 sequence (A0A0U1KYI6 1-1172): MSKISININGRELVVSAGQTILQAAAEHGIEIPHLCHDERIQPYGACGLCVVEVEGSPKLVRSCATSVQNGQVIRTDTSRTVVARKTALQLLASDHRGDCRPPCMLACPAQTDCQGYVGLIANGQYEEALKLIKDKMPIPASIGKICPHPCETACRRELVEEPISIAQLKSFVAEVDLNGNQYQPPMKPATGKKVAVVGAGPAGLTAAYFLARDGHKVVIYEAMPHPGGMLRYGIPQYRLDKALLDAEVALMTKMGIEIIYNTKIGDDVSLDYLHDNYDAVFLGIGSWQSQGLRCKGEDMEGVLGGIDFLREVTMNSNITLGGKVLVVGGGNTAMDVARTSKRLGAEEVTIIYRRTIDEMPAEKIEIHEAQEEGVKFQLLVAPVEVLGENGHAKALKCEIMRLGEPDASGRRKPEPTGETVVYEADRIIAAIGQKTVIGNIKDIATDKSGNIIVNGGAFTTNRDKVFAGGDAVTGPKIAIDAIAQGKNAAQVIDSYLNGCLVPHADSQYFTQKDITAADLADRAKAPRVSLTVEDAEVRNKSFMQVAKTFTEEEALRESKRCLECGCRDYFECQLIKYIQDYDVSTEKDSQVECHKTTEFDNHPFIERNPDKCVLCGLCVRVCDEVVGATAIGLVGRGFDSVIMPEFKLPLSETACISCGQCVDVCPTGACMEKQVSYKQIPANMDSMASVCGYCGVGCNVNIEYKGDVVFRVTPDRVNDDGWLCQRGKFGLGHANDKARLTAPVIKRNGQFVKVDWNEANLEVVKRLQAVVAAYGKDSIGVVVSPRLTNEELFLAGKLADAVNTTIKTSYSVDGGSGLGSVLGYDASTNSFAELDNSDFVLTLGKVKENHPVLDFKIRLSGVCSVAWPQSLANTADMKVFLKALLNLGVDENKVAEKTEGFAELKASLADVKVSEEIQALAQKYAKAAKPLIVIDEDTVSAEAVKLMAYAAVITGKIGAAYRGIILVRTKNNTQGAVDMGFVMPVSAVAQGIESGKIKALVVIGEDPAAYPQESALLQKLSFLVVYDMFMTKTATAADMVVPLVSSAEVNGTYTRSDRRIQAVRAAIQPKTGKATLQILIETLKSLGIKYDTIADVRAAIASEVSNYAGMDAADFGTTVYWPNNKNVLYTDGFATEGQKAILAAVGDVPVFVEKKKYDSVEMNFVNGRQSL
T1 sequence (A0A0U1KYM9 1-584 partner): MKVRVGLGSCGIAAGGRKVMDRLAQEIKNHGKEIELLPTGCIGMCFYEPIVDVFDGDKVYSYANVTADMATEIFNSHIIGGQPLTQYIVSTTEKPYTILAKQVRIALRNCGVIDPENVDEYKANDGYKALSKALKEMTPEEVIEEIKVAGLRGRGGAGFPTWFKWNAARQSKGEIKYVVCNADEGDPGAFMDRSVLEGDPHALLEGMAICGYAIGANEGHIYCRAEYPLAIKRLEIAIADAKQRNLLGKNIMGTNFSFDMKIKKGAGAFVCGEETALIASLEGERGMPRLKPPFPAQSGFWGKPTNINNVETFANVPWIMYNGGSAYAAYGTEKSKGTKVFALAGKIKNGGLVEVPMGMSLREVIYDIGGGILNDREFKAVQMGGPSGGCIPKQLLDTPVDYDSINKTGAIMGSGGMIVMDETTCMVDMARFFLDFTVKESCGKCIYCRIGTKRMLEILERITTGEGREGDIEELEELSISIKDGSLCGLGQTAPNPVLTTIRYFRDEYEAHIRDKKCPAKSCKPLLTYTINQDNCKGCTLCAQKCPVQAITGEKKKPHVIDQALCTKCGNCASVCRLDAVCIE
T1 sequence (A0A0U1KYW8 1-178 partner): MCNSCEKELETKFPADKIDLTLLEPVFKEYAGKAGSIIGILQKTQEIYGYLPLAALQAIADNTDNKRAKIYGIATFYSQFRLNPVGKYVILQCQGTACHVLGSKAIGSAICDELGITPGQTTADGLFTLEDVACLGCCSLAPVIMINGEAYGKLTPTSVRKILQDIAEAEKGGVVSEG
Nature of the test: spectrophotometric, […] nm. It is filed as biochemical. The settings on record: 0.5 mM NADP+, 0.25 mM NADH, 30 uM reduced ferredoxin; pH 8, 50 C.

Test [2] addresses T2, StnABC complex (FMN / NAD(H) site in StnB) (Sporomusa ovata, UniProt A0A0U1KYM9).
T2 construct: gene SpAn4DRAFT_2936; same complex as P1, other site; native purification from S. ovata, untagged; tetramer of StnABC heterotrimers; mildly BS3-crosslinked for cryo-EM; with Electron-bifurcating transhydrogenase subunit StnA (HydC / NuoE-like, thioredoxin-like [2Fe-2S] subunit)
T2 sequence (A0A0U1KYM9 1-584): T1 sequence (A0A0U1KYM9 1-584 partner)
T2 sequence (A0A0U1KYW8 1-178 partner): T1 sequence (A0A0U1KYW8 1-178 partner)
T2 sequence (A0A0U1KYI6 1-1172 partner): T1 sequence (A0A0U1KYI6 1-1172)
In words: spectrophotometric, […] nm. It is filed as biochemical. The settings on record: 0.25 mM NADH, 0.5 mM NADP+, 30 uM reduced ferredoxin; pH 8, 50 C.

Test [3] addresses StnC subunit of the StnABC transhydrogenase complex from Sporomusa ovata (Sporomusa ovata). In words: cryo-EM structure; single-particle cryo-EM of the natively purified StnABC complex, mildly cross-linked, anoxic; state S1 without added FMN and substrates (3.2 Å) and state S2 with 10 µM FMN, 500 µM NAD+, 30 µM Fd, 500 µM NADPH (3.0 Å); D2 symmetry.

Turning to `NC(=O)c1ccc[n+]([C@@H]2O[C@H](COP(=O)(O)OP(=O)(O)OC[C@H]3O[C@@H](n4cnc5c(N)ncnc54)[C@H](OP(=O)(O)O)[C@@H]3O)[C@@H](O)[C@H]2O)c1` [NADP^+], the “spectrophotometric, 340 nm” value in test [1] was “catalysed the Fdred and NADH-dependent reduction of NADP^+”. `NC(=O)C1=CN([C@@H]2O[C@H](COP(=O)(O)OP(=O)(O)OC[C@H]3O[C@@H](n4cnc5c(N)ncnc54)[C@H](O)[C@@H]3O)[C@@H](O)[C@H]2O)C=CC1` [NADH]: the “spectrophotometric, 340 nm” value in test [2] is “catalysed the Fdred and NADH-dependent reduction of NADP^+”. Usually stoichiometry N stands for the number of molecules, sites or subunits per partner or assembly. In test [3], “StnC subunit of the StnABC transhydrogenase complex from Sporomusa ovata (natural protein)” displayed a stoichiometry N of 4.
